Key:
Format in all cases: biochemical
[1] = test system: alternative pathway of complement (ZAS activated); test: In vitro complement activation of human serum by Zymosan A (ZAS), comparison of meglumine analogues; conditions: FIG. 6
Procedure: (§1) A method for investigation of the ability of different agents to activate the complement system in vitro is described. Briefly, human serum is exposed to the different agents for 30 min at 37Ec. The activation is stopped by placing the samples in an ice-water bath and immediately add cold EDTA-solution at a final concentration of 15 mM. The latter stops further activation by chelating calcium and magnesium ions. The degree of activation is subsequently determined by using commercially available enzyme immunoassays (EIA) for determination of specific complement activation products. In these experiments C3a-desArg or SC5b-9 have been used, representing early pathway activation and terminal pathway activation respectively.
In order to investigate and compare the inhibitory effects on in vitro complement activation of other compounds with structural resemblance to meglumine (N-methyl-D-glucamine), a new study was performed. The new test substances chosen were N-methyl-mannosamine, 3-methylamino-1,2-propanediol and 2-(methylamino)ethanol.
Human serum was exposed to Zymosan A (ZAS), a strong activator of the alternative pathway of complement, at three different concentrations (5, 2 and 1 mg/mL serum). The complement activation induced by ZAS alone was compared with that obtained when adding the different test substances at two different concentrations to the ZAS-activated serum. In addition to the three chosen test substances meglumine was included for comparison.
To investigate the inhibitory effects of the test substances at a concentration corresponding to what is given of meglumine when injecting contrast agents such as Hexabrix, a concentration of 5.3 mg/mL serum was used. […] Complement activation induced by ZAS both at 2 and 1 mg/mL, was inhibited by meglumine, 3-methylamino-1,2-propanediol and 2-(methylamino)-ethanol. […] It should be noted that although the concentration of ZAS was reduced, the complement activation obtained was much higher than what would be expected in vivo. Thus meglumine, 3-methylamino-1,2-propanediol and 2-(methylamino)-ethanol seem to be very effective in controlling complement activation.

[2] = test system: complement system (early pathway activation, C3a-desArg); test: In vitro complement activation by X-ray contrast agents in human serum, C3a-desArg EIA; conditions: for inhibition of complement activation induced by Visipaque: substance added to Visipaque, human serum
Procedure: A method for investigation of the ability of different agents to activate the complement system in vitro is described. Briefly, human serum is exposed to the different agents for 30 min at 37Ec. The activation is stopped by placing the samples in an ice-water bath and immediately add cold EDTA-solution at a final concentration of 15 mM. The latter stops further activation by chelating calcium and magnesium ions. The degree of activation is subsequently determined by using commercially available enzyme immunoassays (EIA) for determination of specific complement activation products. In these experiments C3a-desArg or SC5b-9 have been used, representing early pathway activation and terminal pathway activation respectively. The concentrations of contrast agents used in vitro in these experiments is based on the following assumptions: One of the applied clinical doses (ACD) used in vivo is 150 mL Visipaque at a concentration of 320 mg I/mL. For a person of 70 kg with a blood volume of about 5.5 L and a plasma fraction of about 3.5 L, the ACD corresponds to 13.7 mg I/mL serum in the test system. Five times this concentration (68.5 mgI/mL serum) was used for all contrast agents to cover maximum blood concentration immediately after bolus injection of the substances. Hexabrix and Visipaque with concentrations of 320 mg I/mL and phosphate buffered saline (at an equal volume) were added to human serum. Subsequently in vitro complement activation was performed as described previously followed by the determination of C3a-desArg. […] In order to investigate the effect of meglumine on complement activation, meglumine at different concentrations were added to Visipaque and in vitro complement activation was performed followed by determination of C3a-desArg. […] An expanded concentration response experiment (tighter concentration range) was subsequently performed. Ten concentrations of meglumine ranging from 0–18% (w/w) of the iodine content in Visipaque were used. […] The effects of meglumine (39% w/w of mg I/ml) on other non-ionic x-ray contrast agents were investigated. Iopamidol, Omnipaque, Ultravist and Visipaque were added to human serum at a final concentration of 68.5 mg I/mL. Subsequently in vitro complement activation was performed, followed by determination of C3a-desArg as previously described in the section “In vitro complement activation” and in Example 1.

[3] = test system: coagulation system (intrinsic pathway); test: Partial activated thromboplastin time test (commercial)
Procedure: (§2) As the body cascade systems are connected, the effects of meglumine on the coagulation system were investigated, by using commercial tests for prothrombin time (extrinsic pathway) and partial activated thromboplastin time (intrinsic pathway). Briefly, meglumine was added to the test systems at final concentrations of 4 mg/mL and 25 mg/mL. In the prothrombin time test meglumine increased the coagulation time by 20.5 and 72.7 seconds respectively. In the partial activated thromboplastin time test the coagulation time was increased by 6.2 and 117.9 seconds respectively. The control plasma heparin, supplied with the kit, increased the coagulation time by 36.4 seconds compared with normal plasma. Meglumine seems to prolong the coagulation time in a concentration dependent way, exceeding the time obtained for heparin plasma at the highest concentration used.

[4] = test system: classical pathway of complement (heat aggregated IgG activated, SC5b-9); test: In vitro complement activation by heat aggregated IgG in human serum, SC5b-9 EIA; conditions: heat aggregated IgG 5 mg/mL serum, meglumine 390 mg/mL, FIG. 5
Procedure: as §1
(§3) The alternative and classical pathways represent the main ways of activating the complement system. The ability of meglumine to inhibit these pathways were investigated by using well known activators, Zymosan A (alternative pathway activator) and heat aggregated IgG (classical pathway activator). Zymosan A at 10 mg/mL serum or Zymosan A added meglumine at a final concentration of 39% (w/v) (390 mg/mL) was added to human serum and incubated for 1 hour at 37^EC on a vial roller. To obtain heat aggregated IgG, rabbit IgG at 30 mg/mL was incubated for 30 min at 65EC on a vial roller. […] The samples were analysed for SC5b-9. […]

[5] = test system: coagulation system (extrinsic pathway); test: Prothrombin time test (commercial)
Procedure: as §2

[6] = test system: alternative pathway of complement (Zymosan A activated, SC5b-9); test: In vitro complement activation by Zymosan A in human serum, SC5b-9 EIA; conditions: Zymosan A 10 mg/mL serum, meglumine 390 mg/mL, 1 hour 37 C, FIG. 4
Procedure: as §1, §3

[7] = ZAS 5 mg/mL serum, test substance 390 mg/mL
[8] = ZAS 2 and 1 mg/mL serum, test substance 5.3 mg/mL serum

| SMILES | inhibition of in vitro complement activation induced by ZAS [1, 7] | inhibition of in vitro complement activation induced by ZAS [1, 8] | inhibition of complement activation induced by Visipaque ([2]; C3a-desArg) | also measured |
| --- | --- | --- | --- | --- |
| CNCC(O)CO (centres unmarked) [3-methylamino-1,2-propanediol] | inhibited | inhibited | – | – |
| CN[C@@H]1C(O)O[C@H](CO)[C@@H](O)[C@@H]1O (some centres unmarked) [N-methyl-mannosamine] | inhibited | weaker inhibitory effect | – | – |
| OC[C@@H](O)[C@@H](O)[C@H](O)[C@H](O)CO [Mannitol, reference compound] | – | – | no inhibitory effects | – |
| CNC[C@H](O)[C@@H](O)[C@H](O)[C@H](O)CO [meglumine, N-methyl-D-glucamine] | inhibited | inhibited | abolished the complement activation | inhibition of Visipaque-induced complement activation after pH adjustment ([2]; Visipaque with meglumine (pH 11) vs adjusted with HCl to pH 7.4, FIG. 3): not due to the high pH; meglumine concentration at which an inhibitory effect was observed ([2]; meglumine 0–32.5% added to Visipaque, C3a-desArg, FIG. 1): 8–32.5 % (w/w) of the iodine content in Visipaque; inhibition of in vitro complement activation by non-ionic contrast agents (C3a-desArg) ([2]; meglumine 39% w/w of mg I/ml, Iopamidol, Omnipaque, Ultravist and Visipaque at 68.5 mg I/mL serum, FIG. 7): inhibited; lowest concentration of meglumine able to inhibit the complement activation ([2]; ten concentrations 0–18% (w/w) of iodine content in Visipaque, C3a-desArg, FIG. 2): 6 % of the iodine content; increase of coagulation time, partial activated thromboplastin time test ([3]; final concentration 4 mg/mL): 6.2 s; increase of coagulation time, partial activated thromboplastin time test ([3]; final concentration 25 mg/mL): 117.9 s; inhibition of classical pathway activation of complement (SC5b-9) [4]: inhibited; increase of coagulation time, prothrombin time test ([5]; final concentration 4 mg/mL): 20.5 s; increase of coagulation time, prothrombin time test ([5]; final concentration 25 mg/mL): 72.7 s; inhibition of alternative pathway activation of complement (SC5b-9) [6]: inhibited |
| CNCCO [2-(methylamino)-ethanol] | inhibited | inhibited | – | – |

Source: US7060731B2, “Use of amines” (Amersham Health AS, priority 2000, dated 2006)
